These results are taken from patent publication US20240115704A1, “TREATMENT OF CANCER WITH NK CELLS AND A CD38-TARGETED ANTIBODY” (Artiva Biotherapeutics, Inc., priority 2021, published 2024).

Series [1] concerns K562, Daudi, RPMI-8226, and NCI-H929. Nature of the series: Impact of steroids on AB-101+daratumumab ADCC. The settings on record: 48 hours steroid treatment; 5:1 E:T; with daratumumab.
Another series deals with NCI-H929. Nature of the series: Cytotoxicity of steroid treated AB-101 cells against NCI-H929. The series is classed as cell-based. The settings on record: 48 hours; particularly when combined with 500 IU/mL of IL-2; 5:1 E:T.
In another series the test system is K562. Briefly: Cytotoxicity of steroid treated AB-101 cells against K562. Particulars: 5:1 E:T. The series is classed as cell-based.
A further series has as its system Daudi. Nature of the series: Cytotoxicity of steroid treated AB-101 cells against Daudi. In kind it is cell-based. The settings on record: 48 hours; particularly when combined with 500 IU/mL of IL-2; 5:1 E:T.
For another series, the system named is CD38− cell line K562. Nature of the series: Daratumumab titration, cytotoxicity of AB-101 cells against K562. Particulars: AB-101 at 5:1 E:T, 4 hours. In kind it is cell-based. The protocol: (§1) After 4 hours on co-culture, the samples were analyzed by flow cytometry.
Series [2] relates to Burkitt's lymphoma cell line Daudi. Nature of the series: Complement fixation assay (CDC), assay control tumor line. In kind it is cell-based. The settings on record: human complement serum; lowest concentration tested. From the text:
Burkitt's lymphoma cell line Daudi was included as an assay control.

The subject of series [3] is CD38+ multiple myeloma cell line MM.1S. Nature of the series: Daratumumab titration, ADCC by AB-101 cells against MM.1S. The series is classed as cell-based. The settings on record: AB-101 at 5:1 E:T, 4 hours. The protocol:
as §1

As to `C[C@@H]1C[C@H]2[C@@H]3CCC4=CC(=O)C=C[C@]4(C)[C@@]3(F)[C@@H](O)C[C@]2(C)[C@@]1(O)C(=O)CO` [Dexamethasone, (8S,9R,10S,11S,13S,14S,16R,17R)-9-fluoro-11,17-dihydroxy-17-(2-hydroxyacetyl)-10,13,16-trimethyl-6,7,8,11,12,14,15,16-octahydrocyclopenta[a]phenanthren-3-one], the “ADCC potential of steroid treated AB-101 cells” value in series [1] was “did not abolish”. Besides, the “basal cytotoxicity of steroid treated AB-101 cells” value with NCI-H929 is given as “enhanced”; with K562 (0.1, 1, 10 μM for 48 hours, all concentrations tested, with the exception of one cell lot), “reduced”; with Daudi, “enhanced”. Besides, the “cytotoxicity of steroid treated AB-101 cells with 500 IU/ml of IL-2” value in the series on K562 (500 IU/ml IL-2 during steroid treatment) is recorded as “restored cytotoxicity”.

Regarding “daratumumab: mAb that targets CD38, approved for multiple myeloma”, the “cytotoxicity of AB-101 cells, daratumumab vs IgG control” value in the series on CD38− cell line K562 is “no change in cytotoxicity”. Also, in series [2], the “concentration of daratumumab at which lysis reached saturation” value is no more than 0.41 µg/mL. The “ADCC compared to IgG1 control antibodies” value in series [3] was “elicited ADCC”.
